Consider one compound from patent publication US12344852B2, “Control of phenotype in plants” (GREENVENUS, LLC, priority 2016, dated 2025).

The test system of assay [1] is barstar gene under EcR-based switch. The assay can be described thus: barstar expression by qRT-PCR in leaf and floral tissues of ID06 plants. It is filed as in vivo, Arabidopsis. The conditions noted are these: 250 nM vs water. (In general: Real-time PCR tracks product formation cycle by cycle.)
Assay [2] deals with IP:FT (ID14) transgenic ft mutant Arabidopsis plants. The assay can be described thus: Induction of flowering in IP:FT (ID14) transgenic ft mutant plants by ligand spray. It is filed as in vivo. Here is the method: Briefly, the DNA constructs shown in FIG. 3 were transformed into homozygous ft mutant Arabidopsis by flower dipping method. T1 seeds were harvested and germinated in soil. 5 days old T1 seedlings were sprayed with LIBERTY® 280SL herbecide to kill off non-transgenic plants. Selected transgenic plants were analyzed by Bar-specific quantitative PCR (qPCR) to check transgene copy number. Events with low copy number of the transgenes were grown in growth chambers to evaluate phenotypes. […] Select T1 plants were grown to maturity and seeds were used to generate T2 and T3 progeny plants. Further detailed evaluation of the transgenic lines were done in T2 and T3 generation plants (as described in Example 7).
At day 11, the ID14 plants produced more flowers and pods while the ft mutant plant just started bolting.
T2 seeds were harvested from ID14 T1 plants and several experiments were designed to test if the EcR gene switch is tightly controlling the transgenic FT expression in the absence of the activator ligand, and if the switch can be easily turned on by applying the ligand to express enough FT to induce early flowering. T2 seeds from six independent ID14 lines (three with single copy of the transgene and three—with two copies) were planted along with wild-type Arabidopsis and ft mutant and grown under long day (16 hours) and short day (8 hours) photoperiods. Genotype of these T2 plants: homozygous, heterozygous, and null were assessed by TaqMan qPCR as described in Example 7 with the exception of utilizing only the Bar gene-specific primers and probes Bar-F1/Bar-R1/Bar-T1 and the same PDS endogenous control AtPDS-F1/AtPDS-R1/AtPDS-T1. The T2 plants segregated the transgene as a single gene following the Mendelian inheritance.
The homozygous plants and null segregants that served as isogenic negative controls were subject to treatment with water (as a control) and 2 concentrations of methoxyfenozide: low (250 nM) and high (2.5 μM). Plants were treated in groups of 2 pots with 5 plants in each at short and long day photoperiods. Treatments were administered every other day starting from day 19 (long day) and 25 (short day) after planting and continued for about three weeks until all plants flowered.
ID14 T2 plants were maintained to maturity and T3 seeds were collected for further characterization of a selected single-copy line ID14-50. The homozygous and null segregant T3 plants along with Arabidopsis ft mutant plants were grown for three weeks before starting ligand application. Plants were divided in four groups in which up to twelve individual plants per genotype were counted. Each group was treated with different concentrations of methoxyfenozide (10, 50 and, 250 nM) and one group was mock treated (water). Treatments were applied every other day from day 17 (long day) or 24 (short day) for a period of approximately three weeks or until all plants flowered.
The observation was done over a period of ninety days from the day of planting. In both short day and long day photoperiod, the homozygous T3 ID14-50 plants exposed to ligand started flowering as early as fourteen days before any null plants and ft mutants while the untreated plants flowered at a similar time with null and ft mutant plants as shown in FIG. 18.

Assay [3] relates to Barnase/IP:Barstar (ID06) transgenic Arabidopsis plants. The assay is described as follows: Restoration of flowering in Barnase/IP:Barstar (ID06) transgenic plants by ligand spray. The note with it: for B/FS:B plants that developed flowers: T2 ID06 plants, end of experiment day 51. In kind it is in vivo. The source says:
A vector ID06, illustrated diagrammatically in FIG. 11, was constructed to provide constant expression of the barnase ribonuclease from Bacillus amyloliquefaciens in flower primordia to suppress flowering. The DNA construct (ID06) was transformed into wild type Arabidopsis by flower dipping method. T1 seeds were harvested and germinated in soil. Seven day old T1 seedlings were sprayed with LIBERTY® 280SL herbicide and 37 transgenic plants resistant to the herbicide survived. Transformants were analyzed by quantitative PCR (qPCR) to check transgene copy numbers. Thirteen percent of transgenic events contained only one copy of the transgene. All events were grown in growth chambers to evaluate phenotypes. The transgenic plants containing ID06 DNA construct should express the cytotoxic ribonuclease barnase in flower primordia which prevents formation of flowers. […] Instead of flowers, the Barnase/IP:Barstar plants have elongated small leaves that could have derived from sepals as shown in the inset picture of FIG. 12B.
The seven week old non-flowering plants were then sprayed with the ligand methoxyfenozide (2.5 μM) to turn on barstar expression and restore flowering. Ligand applications were performed every other day until all flowers had developed. […] T2 seeds were harvested for further evaluation of the transgenic lines on T2 plants.
Multiple T2 plants from six independent single copy transgenic ID06 events along with wt arabidopsis control plants were grown for three weeks. At three weeks plants from each line were divided in 3 treatment groups of 12 plants in each. The treatment was applied every other day for 30 days. The plants in group A were sprayed with plain water, in group B—with 50 nM solution of methoxyfenozide, and in group C—with 250 nM solution of methoxyfenozide. Before start of the treatment leaf tissue was collected from each plant for DNA extraction and genotype assessment by qPCR to identify homozygous, heterozygous and null segregant plants.
Plants were assessed as to whether they ever flowered (yes/no at the end of experiment, day 51) and the time to start flowering defined as the number of days after the first application of methoxyfenozide (days post-treatment: DPT) until the first flower bud appears. […] All the null segregants and wild-type plants flowered irrespectively of whether or not they were sprayed with methozyfenozide.

Turning to `COc1cccc(C(=O)NN(C(=O)c2cc(C)cc(C)c2)C(C)(C)C)c1C` [methoxyfenozide, 3-methoxy-2-methylbenzoic acid 2-(3,5-dimethylbenzoyl)-2-(1,1-dimethylethyl)hydrazide], in assay [1], the expression of barstar result is “dramatically increased”. In assay [2] (T1 ID14 plants sprayed with ligand), the “flowering of non-flowering IP:FT plants after spray” value is “induced flowering and allowed for normal seed set”. Further, in assay [2] (T1 plants not flowering within 3 weeks, 2.5 μM every other day, ft mutant did not), the “time until treated ID14 plants started bolting” value is no more than 5 days. The “time after the first application until ID14 plants started to flower” value in assay [2] (T2 ID14 plants, ft mutant and untreated ID14 plants did not flower) is “Five”. The “flowered earlier than ft mutant plants” value in assay [2] (homozygous T2 ID14-50 plants, 250 or 2500 nM) is listed as 22 to 30 days. Besides, the induction of flowering result in assay [2] (homozygous T2 ID14 plants, 250 nM and 2.5 μM every other day) was “clearly observed in most homozygous plants”. Moreover, the “started flowering before any null plants and ft mutants” value in assay [2] (homozygous T3 ID14-50 plants, 10, 50, 250 nM, short day and long day photoperiod) is “fourteen”. Further, the “biomass production (number of rosette leaves as a proxy)” value in assay [2] (homozygous T3 ID14-50 plants, all ligand concentrations, both photoperiods) is recorded as “strong decrease”. Moreover, the “flowering of Barnase/Barstar plants” value in assay [3] (2.5 μM ligand, FIG. 12 Panel C) is listed as “flowering”. Besides, the “B/FS:B plants that developed flowers” value in assay [3] (50 nM sprayed every other day for 30 days) was 56 of 57; in assay [3] (250 nM sprayed every other day for 30 days), 50 of 52. For the same compound, the “delay in the time to start flowering between ligand-treated transgenic (ID06) and non-transgenic plants” value in assay [3] (T2 plants, 50 nM or 250 nM) fell in the range of 8 to 10 days. Moreover, in assay [3] (same effect at 50 nM and 250 nM solution), the “minimal effective concentration on flowering” value is given as “lower than 50 nM”. Also, in assay [3] (seven week old non-flowering T1 plants, 2.5 μM sprayed every other day), the “time after ligand application until flower buds and flowers appear” value was “seven”.
